# Cf = 5(6)-carboxyfluorescein
# Experiments:
# Assay type in all cases: cell-based
# E. coli 498 [1] = test: Bactericidal cell viability assay (CFU after 18 h), E. coli 498
# Protocol: (§1) Initial coarse-level growth inhibition assays were carried out with concentrations of peptides up to 200 μM. Further assays of growth rates (bacteriostatic activity) and cell viability (bactericidal activity) were carried out on a finer scale. […] Growth rates were derived from spline-fitted growth curves to optical density (OD) data, while cell viability was assessed by plating cultures and counting colony-forming units after 18 h. Dose–response curves were fitted to both the bacteriostatic and bactericidal data with Markov Chain Monte Carlo parameter optimization (further details in electronic supplementary material). […]
# (§2) v) Coarse growth inhibition assays. […]
# (§3) The assa ys were carried out in 96-well plates (Griener Bio On e, Frick enh ausen, Germ an y) in an Eon™ Microplate Spectrophotometer (BioTek Instruments, VT, USA) for 16 h while r eco rding of changes in the OD600 at 20- min intervals. […] The AMPs used inthis assay are sh own in Tables S1and S4. vi) Dose response curv e quantif ication […]
# (§4) 1.25, 2.5, 5, 10, and 20 μM) in rows, and 10 µl volumes of hymenoptaecin (final concentrations of 0, 0.625, 1.25, 2.5, 5, and 10 μM) in columns. […] Th e OD600 was measured ever y hour for 12 consecutive hours using a SpectraMax M2e microplate reader (Molecular Devices, Sunnyvale, USA). […]
# (§5) Cell viability. […] Bacteria were grown for 18 h with AMPs before the number of viable cells was assessed. […]
# E. coli 498 [2] = test: Bacteriostatic growth-rate dose-response assay, E. coli 498; settings: abaecin in combination with hymenoptaecin
# Protocol: as §1, §2, §3, §4, §5
# E. coli strain D31 = test: Coarse growth inhibition assay, E. coli strain D31
# Protocol: as §1
# v) Coarse growth inhibition assays.
# Bact eria in mid-logarithmic phase were used for all growth inhibition assays. The initial OD600 for all assa ys was set to 0.001 to ensure the full contact of each b acteri al cell with added AMPs.
# The assa ys were carried out in 96-well plates (Griener Bio On e, Frick enh ausen, Germ an y) in an Eon™ Microplate Spectrophotometer (BioTek Instruments, VT, USA) for 16 h while r eco rding of changes in the OD600 at 20- min intervals. For each assa y, a control culture was included with medium onl y. The AMPs used inthis assay are sh own in Tables S1and S4. vi) Dose response curv e quantif ication
# Growth inhibition assay. E. coli cells (DSM 498) wer e grown in Muller-Hinton broth (Sigma-Aldrich) for 14 h at 30 °C and count ed using a FastRead 102 counting cham ber ( Immune S yst ems, UK). The suspension w as adjusted in fresh mediu m to achieve a cell density of 5 x 104 per 80 µl. […]
# as §4
# Cell viability. […] Bacteria were grown for 18 h with AMPs before the number of viable cells was assessed. […] Colony-forming units (CFUs), each representing a viable cell from the culture, were counted at a dilution where each individual CFU could be distinguished.
substance,measurement,setting,value
"abaecin: proline-rich peptide abaecin, species version not specified at the place (Cf-FVPYNPPRPGQSKPFPSFPGHGPFNPKIQWPYPLPNPGH-NH2)","impact on cell viability, abaecin alone","E. coli 498 [1]; E. coli 498, concentrations tested up to 20 µM, CFU after 18 h",no impact on cell viability
same,lowest abaecin concentration that enhanced the bactericidal effects of hymenoptaecin,"E. coli 498 [1]; E. coli, in combination with hymenoptaecin",1.25 µM
same,effect of abaecin on the MIC of hymenoptaecin,E. coli 498 [2],reduce the minimal inhibitory concentration of hymenoptaecin
same,"antibacterial activity, abaecin alone","E. coli strain D31; E. coli D31, 20 µM (figure 1a) to 200 µM (data not shown), OD600, 16 h",unable to detect any antibacterial activity
same,"antibacterial activity, abaecin alone","E. coli strain D31; E. coli, tested alone at concentrations of up to 200 μM",no detectable activity
same,"impact on bacterial growth or survival, abaecin alone",E. coli strain D31; even at a concentration of 200 µM,no impact on bacterial growth or survival

# Reference: publication PMC4426631, “Insect antimicrobial peptides show potentiating functional interactions against Gram-negative bacteria” (Proceedings of the Royal Society B: Biological Sciences, 2015)
